According to patent publication US20060135800A1, “2-Methylene-19,21-dinor-1alpha-hydroxy-bishomopregnacalciferol” (Wisconsin Alumni Research Foundation, priority 2004, published 2006):
“Also recorded” adds a separate entry of the source.

How the values were obtained:
[1] = Bone calcium mobilization (serum calcium); assay type: in vivo, rat; conditions: rats, ip; even at 100 times the dose of 1α,25-dihydroxyvitamin D3; FIG. 4
Method: (§1) Male, weanling Sprague-Dawley rats were placed on Diet 11 (0.47% Ca) diet +AEK for one week followed by Diet 11 (0.02% Ca) +AEK for 3 weeks. The rats were then switched to a diet containing 0.47% Ca for one week followed by two weeks on a diet containing 0.02% Ca. Dose administration began during the last week on 0.02% calcium diet. Four consecutive ip doses were given approximately 24 hours apart. Twenty-four hours after the last dose, blood was collected from the severed neck and the concentration of serum calcium determined as a measure of bone calcium mobilization. The first 10 cm of the intestine was also collected for intestinal calcium transport analysis using the everted gut sac method.

[2] = PTH suppression in adult rats; assay type: in vivo, rat; conditions: normal rats, ip, 7 consecutive days; FIG. 7
Method: (§2) Adult, female Sprague-Dawley rats were obtained from Harlan (Madison, Wis.).
(§3) Animals were randomly assigned to treatment groups (5 animals/group). All doses were administered intraperitoneally in 100 microliters of propylene glycol. Four to seven consecutive doses were given approximately 24 hours apart. Dosing was initiated after the animals had been allowed to acclimate for at least one week.
(§4) Both control and test articles were administered by intraperitoneal injection in 100 microliters for 4-7 consecutive days spaced approximately 24 hours apart. 1,25(OH)2D3 was given for 4 consecutive days, whereas, the test drugs were given for 7 consecutive days.
Twenty-four hours after the final dose, blood was collected from the tail artery and the concentration of bioactive serum PTH was measured using the rat BioActive Intact PTH ELISA Kit from Immutopics, Inc. (San Clemente, Calif.).

[3] = target: T1, full-length recombinant rat vitamin D receptor (Rattus norvegicus, UniProt P13053); assay: Vitamin D receptor binding, competition with [3H]-1,25-(OH)2-D3
T1 construct: Full-length recombinant rat receptor was expressed in E. coli; His tag (C); made in house; host or cells: E. coli BL21(DE3) Codon Plus RIL
T1 sequence (P13053 1-423): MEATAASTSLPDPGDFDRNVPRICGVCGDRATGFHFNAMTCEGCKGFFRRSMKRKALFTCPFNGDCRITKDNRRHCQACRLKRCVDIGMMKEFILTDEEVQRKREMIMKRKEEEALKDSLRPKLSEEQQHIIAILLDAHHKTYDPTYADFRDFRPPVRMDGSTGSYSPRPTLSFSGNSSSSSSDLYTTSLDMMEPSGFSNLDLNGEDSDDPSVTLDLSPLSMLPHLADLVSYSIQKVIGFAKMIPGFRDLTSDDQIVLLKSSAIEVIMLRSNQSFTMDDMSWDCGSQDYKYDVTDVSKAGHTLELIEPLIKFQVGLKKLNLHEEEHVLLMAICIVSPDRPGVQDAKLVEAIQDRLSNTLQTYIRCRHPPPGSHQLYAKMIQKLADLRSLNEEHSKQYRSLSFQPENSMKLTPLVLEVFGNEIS
Method: Full-length recombinant rat receptor was expressed in E. coli BL21(DE3) Codon Plus RIL cells and purified to homogeneity using two different column chromatography systems. The first system was a nickel affinity resin that utilizes the C-terminal histidine tag on this protein. The protein that was eluted from this resin was further purified using ion exchange chromatography (S-Sepharose Fast Flow). Aliquots of the purified protein were quick frozen in liquid nitrogen and stored at −80° C. until use. For use in binding assays, the protein was diluted in TEDK50 (50 mM Tris, 1.5 mM EDTA, pH 7.4, 5 mM DTT, 150 mM KCl) with 0.1% Chaps detergent. The receptor protein and ligand concentration was optimized such that no more than 20% of the added radiolabeled ligand was bound to the receptor.
Unlabeled ligands were dissolved in ethanol and the concentrations determined using UV spectrophotometry (1,25(OH)2D3: molar extinction coefficient=18,200 and λmax=265 nm; Analogs: molar extinction coefficient=42,000 and λmax=252 nm). Radiolabeled ligand (^3H-1,25(OH)2D3, ˜159 Ci/mmole) was added in ethanol at a final concentration of 1 nM.
Radiolabeled and unlabeled ligands were added to 100 mcl of the diluted protein at a final ethanol concentration of ≦10%, mixed and incubated overnight on ice to reach binding equilibrium. […] Total binding was determined from the tubes containing only radiolabeled ligand.

[4] = Serum calcium in adult rats (hypercalcemia); assay type: in vivo, rat; conditions: ip, FIG. 6
Method: as §2, §3, §4
Twenty-four hours after the final dose, approximately 1 ml of blood was collected from the tail artery of each experimental animal. The blood was allowed to coagulate at room temperature and then centrifuged at 3000×g for 15 minutes. The serum was transferred to a polypropylene tube and stored frozen at −20° C. The level of calcium was determined by diluting the serum into 0.1% lanthum chloride and measuring the absorbance on an atomic absorption spectrophotometer (Perkin Elmer Model 3110, Shelton, Conn.).

HL-60 cells = assay: HL-60 differentiation (nitro blue tetrazolium reduction); assay type: cell-based, human
Method: The study drugs were dissolved in ethanol and the concentrations determined using UV spectrophotometry. Serial dilutions were prepared so that a range of drug concentrations could be tested without changing the final concentration of ethanol (≦0.2%) present in the cell cultures.
Human promyelocytic leukemia (HL60) cells were grown in RPMI-1640 medium containing 10% fetal bovine serum. The cells were incubated at 37° C. in the presence of 5% CO2.
HL60 cells were plated at 1.2×10^5 cells/ml. Eighteen hours after plating, cells in duplicate were treated with drug. Four days later, the cells were harvested and a nitro blue tetrazolium reduction assay was performed (Collins et al., 1979; J. Exp. Med. 149:969-974). The percentage of differentiated cells was determined by counting a total of 200 cells and recording the number that contained intracellular black-blue formazan deposits. Verification of differentiation to monocytic cells was determined by measuring phagocytic activity (data not shown).

[5] = Intestinal calcium transport (everted gut sac method); assay type: in vivo, rat; conditions: rats, ip; even at 100 times the dose of 1α,25-dihydroxyvitamin D3; FIG. 5
Method: as §1

[6] = tested on: 24-hydroxylase (24Ohase) gene promoter in ROS 17/2.8 (bone) cells; assay: In vitro transcription assay (24-hydroxylase promoter luciferase reporter); assay type: cell-based; conditions: stably transfected Ros17/2.8 (bone) cells; FIG. 3
Method: Transcription activity was measured in ROS 17/2.8 (bone) cells that were stably transfected with a 24-hydroxylase (24Ohase) gene promoter upstream of a luciferase reporter gene (Arbour et al., 1998). Cells were given a range of doses. Sixteen hours after dosing the cells were harvested and luciferase activities were measured using a luminometer. RLU=relative luciferase units.

In the case of `C=C1[C@H](O)CC(=C/C=C2\CCC[C@]3(C)C(CCC)CC[C@@H]23)C[C@H]1O` (stereo in doubt) [2-methylene-19,21-dinor-1α-hydroxy-bishomopregnacalciferol], the “calcemic activity measured by bone calcium mobilization” value [1] is reported as “very low ability to mobilize calcium from bone; also recorded: no calcemic activity”, the “suppressing parathyroid hormone levels” value [2] is reported as “significant activity” and the “binding to the recombinant vitamin D receptor, times less active than 1α,25-dihydroxyvitamin D3” value ([3]; relative to 1α,25-dihydroxyvitamin D3, FIG. 1) is reported as “about 5 times”. The “binding to vitamin D receptors (in words)” value ([3]; summary statement) was “relatively high binding”, the “raising serum calcium concentrations” value [4] was “absence of raising serum calcium concentrations” and the “inducing differentiation of HL-60 cells, times less active than 1α,25-dihydroxyvitamin D3” value (HL-60 cells; relative to 1α,25-dihydroxyvitamin D3, FIG. 2) was “about 15 times”. The “cell differentiation activity (in words)” value (HL-60 cells; summary statement) was “relatively high cell differentiation activity”, the “calcemic activity measured by intestinal calcium transport” value [5] was “very low intestinal calcium transport activity; also recorded: no calcemic activity” and the “stimulating transcription of a reporter gene” value [6] was “active”.
